{
  "source": "patent US20110020463A1",
  "about": "“THERAPEUTIC AGENT FOR FIBROMYALGIA SYNDROME AND THERAPEUTIC AGENT FOR PAIN CAUSED BY MUSCLE SPASM” (priority 2008, published 2011)",
  "key": {"right blepharism": {"tested_on": "right blepharism", "settings": "human, in vivo"}, "fibromyalgia syndrome": {"tested_on": "fibromyalgia syndrome", "settings": "human, in vivo"}},
  "data": [
    {"substance": "botulinum toxin", "values": [
      {"measurement": "effect on right blepharism (eyelid)", "setting": "right blepharism", "result": "extremely effective"},
      {"measurement": "effect on generalized myalgia", "setting": "fibromyalgia syndrome", "result": "no effect"}
    ]}
  ]
}
